Drawing on USRE40086E1, “Method for treating bacterial infection with novel 7-substituted-9-substituted amino 6-demethyl-6-deoxytetracyclines” (Wyeth Holdings Corporation, priority 1991, dated 2008), this text covers MIC for eight compounds.

Converted amounts (≈) assume the structure as drawn.

The term MIC denotes the smallest concentration in the dilution series that meets the test's criterion for growth inhibition.

Holding throughout (assay): MIC, agar dilution
Format in all cases: cell-based
On the technique in general: In agar dilution the substance is mixed into plates at graded concentrations.

For experiment [1], the system named is S. aureus ATCC 29213 (Sensitive). The conditions noted are these: S. aureus ATCC 29213 (Sensitive).
Experiment [2] has as its system S. aureus UBMS 88-5 (tetM). As to conditions: S. aureus UBMS 88-5 (tetM).
Experiment [3] has as its system S. aureus UBMS 90-3 (Sensitive). As to conditions: S. aureus UBMS 90-3 (Sensitive).
For experiment [4], the system named is S. aureus UBMS 90-2 (tetM). As to conditions: S. aureus UBMS 90-2 (tetM).
In experiment [5] the test system is S. aureus UBMS 88-4 (Sensitive). The conditions noted are these: S. aureus UBMS 88-4 (Sensitive).
Experiment [6] deals with S. haemolyticus AVAH 88-3. As to conditions: S. haemolyticus AVAH 88-3.
The test system of experiment [7] is S. aureus IVES 2943 (meth. resistant). As to conditions: S. aureus IVES 2943 (meth. resistant).
The next experiment deals with E. coli UBMS 88-1 (tetB). As to conditions: E. coli UBMS 88-1 (tetB).
The next experiment deals with E. faecalis ATCC 29212. The conditions noted are these: E. faecalis ATCC 29212.
Experiment [8] has as its system S. aureus UBMS 88-7 (tetK). The conditions noted are these: S. aureus UBMS 88-7 (tetK).
Experiment [9] has as its system E. coli UBMS 88-2 (Sensitive). As to conditions: E. coli UBMS 88-2 (Sensitive).
Another experiment concerns E. coli ATCC 25922. The conditions noted are these: E. coli ATCC 25922.
Experiment [10] concerns S. aureus UBMS 90-1 (tetM). As to conditions: S. aureus UBMS 90-1 (tetM).
Experiment [11] has as its system E. coli UBMS 89-2 (Sensitive). The conditions noted are these: E. coli UBMS 89-2 (Sensitive).
In experiment [12] the test system is S. aureus IVES 1983 (meth. resistant). As to conditions: S. aureus IVES 1983 (meth. resistant).
Experiment [13] has as its system S. aureus Smith (Sensitive). The conditions noted are these: S. aureus Smith (Sensitive).
The next experiment has as its system E. faecalis 12201. As to conditions: E. faecalis 12201.
Another experiment deals with E. coli UBMS 89-1 (tetM). As to conditions: E. coli UBMS 89-1 (tetM).

For `CN(C)c1cc(NS(=O)(=O)c2cccs2)c(O)c2c1CC1CC3C(N(C)C)C(O)=C(C(N)=O)C(=O)C3(O)C(O)=C1C2=O` (centres unmarked) [DD, 7-(Dimethylamino)-9-[(2-thienylsulfonyl)amino)-6-demethyl-6-deoxytetracycline], the MIC in experiment [1] was 0.03 µg/mL (≈ 0.0485 µM); in experiment [2] it was 0.5 µg/mL (≈ 0.808 µM); in [3] it was 0.25 µg/mL (≈ 0.404 µM); in experiment [4], 0.25 µg/mL (≈ 0.404 µM); in [5], 0.5 µg/mL (≈ 0.808 µM); in experiment [6], 2 µg/mL (≈ 3.23 µM). Moreover, the MIC turned out to be 4 µg/mL (≈ 6.47 µM) in experiment [7]; 32 µg/mL (≈ 51.7 µM) against E. coli UBMS 88-1 (tetB); 0.25 µg/mL (≈ 0.404 µM) in the experiment with E. faecalis ATCC 29212; 2 µg/mL (≈ 3.23 µM) in experiment [8]; 8 µg/mL (≈ 12.9 µM) in experiment [9]; 4 µg/mL (≈ 6.47 µM) with E. coli ATCC 25922. The MIC in experiment [10] is 1 µg/mL (≈ 1.62 µM); in experiment [11], 16 µg/mL (≈ 25.9 µM); in [12], 4 µg/mL (≈ 6.47 µM); in [13], 0.03 µg/mL (≈ 0.0485 µM).

Consider `CN(C)CC(=O)Nc1cc(N(C)C)c2c(c1O)C(=O)C1=C(O)C3(O)C(=O)C(C(N)=O)=C(O)C(N(C)C)C3CC1C2.O=S(=O)(O)O` (centres unmarked) [II, 7-(Dimethylamino)-9-[[(dimethylamino)acetyl]amino]-6-demethyl-6-deoxytetracycline sulfate], for which the MIC amounted to 0.03 µg/mL in experiment [1]; 0.12 µg/mL in [2]; 0.06 µg/mL in experiment [3]; 0.06 µg/mL in experiment [4]; 0.06 µg/mL in [5]; 0.12 µg/mL against E. faecalis 12201. For the same compound, the MIC in experiment [6] is 0.25 µg/mL; in experiment [7], 1 µg/mL; with E. coli UBMS 88-1 (tetB), 0.25 µg/mL; in the experiment on E. coli UBMS 89-1 (tetM), 0.12 µg/mL; in the experiment on E. faecalis ATCC 29212 it was 0.03 µg/mL; in experiment [8], 0.06 µg/mL. For the same compound, the MIC in the experiment on E. coli ATCC 25922 is 0.12 µg/mL; in experiment [10], 0.25 µg/mL; in experiment [11], 0.25 µg/mL; in experiment [12], 1 µg/mL; in experiment [13], 0.12 µg/mL.

Take `CN(C)c1cc(NS(=O)(=O)c2ccc(Cl)cc2)c(O)c2c1CC1CC3C(N(C)C)C(O)=C(C(N)=O)C(=O)C3(O)C(O)=C1C2=O` (centres unmarked) [EE, 9-[[(4-Chlorophenyl)sulfonyl]amino)-7-(dimethylamino)-6-demethyl-6-deoxytetracycline]: the MIC worked out at 0.03 µg/mL (≈ 0.0464 µM) in experiment [1]; 0.12 µg/mL (≈ 0.185 µM) in experiment [2]; 0.12 µg/mL (≈ 0.185 µM) in experiment [3]; 0.12 µg/mL (≈ 0.185 µM) in [4]; 0.12 µg/mL (≈ 0.185 µM) in experiment [5]; 0.5 µg/mL (≈ 0.773 µM) in [7]. For the same compound, the MIC against E. coli UBMS 88-1 (tetB) was >32 µg/mL; in the experiment with E. faecalis ATCC 29212, 0.06 µg/mL (≈ 0.0927 µM); in [8] it was 1 µg/mL (≈ 1.55 µM); in experiment [9], >32 µg/mL; in the experiment with E. coli ATCC 25922 it was >32 µg/mL; in experiment [10] it was 0.25 µg/mL (≈ 0.386 µM). Moreover, the MIC is >32 µg/mL in experiment [11], 1 µg/mL (≈ 1.55 µM) in experiment [12] and 0.12 µg/mL (≈ 0.185 µM) in experiment [13].

As for `CC(=O)Nc1cc(N(C)C)c2c(c1O)C(=O)C1=C(O)[C@]3(O)C(=O)C(C(N)=O)=C(O)[C@@H](N(C)C)[C@@H]3C[C@@H]1C2` [B, 9-(Acetylamino)-7-(dimethylamino)-6-demethyl-6-deoxytetracycline], the minimal inhibitory concentration (MIC) was 0.12 µg/mL (≈ 0.233 µM) in experiment [1]; 0.12 µg/mL (≈ 0.233 µM) in experiment [2]; “≦0.06 μg/ml” in experiment [5]; 0.5 µg/mL (≈ 0.972 µM) in the experiment with E. faecalis 12201; 64 µg/mL (≈ 124 µM) in experiment [7]; >128 µg/mL in the experiment on E. coli UBMS 88-1 (tetB). In addition, the MIC with E. faecalis ATCC 29212 stood at 0.12 µg/mL (≈ 0.233 µM); in experiment [8], 4 µg/mL (≈ 7.77 µM); in experiment [9], 2 µg/mL (≈ 3.89 µM); in the experiment with E. coli ATCC 25922, 2 µg/mL (≈ 3.89 µM); in experiment [13], 0.12 µg/mL (≈ 0.233 µM).

For `CN(C)c1cc(NS(=O)(=O)c2ccccc2)c(O)c2c1CC1CC3C(N(C)C)C(O)=C(C(N)=O)C(=O)C3(O)C(O)=C1C2=O` (centres unmarked) [CC, 7-(Dimethylamino)-9-[(phenylsulfonyl)amino]-6-demethyl-6-deoxytetracycline], the MIC entry in experiment [1] was “≦0.015 μg/ml”; in [2] it was 4 µg/mL (≈ 6.53 µM); in experiment [3] it was 4 µg/mL (≈ 6.53 µM); in experiment [4], 0.06 µg/mL (≈ 0.0979 µM); in experiment [5], 0.03 µg/mL (≈ 0.049 µM); in [6] it was 4 µg/mL (≈ 6.53 µM). The minimal inhibitory concentration (MIC) is 4 µg/mL (≈ 6.53 µM) in experiment [7]; 16 µg/mL (≈ 26.1 µM) against E. coli UBMS 88-1 (tetB); 0.06 µg/mL (≈ 0.0979 µM) in the experiment on E. faecalis ATCC 29212; 4 µg/mL (≈ 6.53 µM) in [8]; 8 µg/mL (≈ 13.1 µM) in experiment [9]; 2 µg/mL (≈ 3.26 µM) against E. coli ATCC 25922. For the same compound, the MIC worked out at 4 µg/mL (≈ 6.53 µM) in experiment [10], 16 µg/mL (≈ 26.1 µM) in [11], 4 µg/mL (≈ 6.53 µM) in experiment [12] and 4 µg/mL (≈ 6.53 µM) in experiment [13].

Take `CN(C)c1cc(NS(C)(=O)=O)c(O)c2c1CC1CC3C(N(C)C)C(O)=C(C(N)=O)C(=O)C3(O)C(O)=C1C2=O` (centres unmarked) [FF, 7-(Dimethylamino)-9-[(methylsulfonyl)amino]-6-demethyl-6-deoxytetracycline]: the MIC in experiment [1] was 0.03 µg/mL (≈ 0.0545 µM); in experiment [2] it was 0.25 µg/mL (≈ 0.454 µM); in experiment [3] it was 0.12 µg/mL (≈ 0.218 µM); in experiment [4], 0.06 µg/mL (≈ 0.109 µM); in experiment [5], 0.25 µg/mL (≈ 0.454 µM); in experiment [7] it was 16 µg/mL (≈ 29.1 µM). Besides, the MIC with E. coli UBMS 88-1 (tetB) is 8 µg/mL (≈ 14.5 µM); in the experiment with E. faecalis ATCC 29212, 0.06 µg/mL (≈ 0.109 µM); in [8], 8 µg/mL (≈ 14.5 µM); in experiment [9], 2 µg/mL (≈ 3.63 µM); with E. coli ATCC 25922, 2 µg/mL (≈ 3.63 µM); in [10], 0.25 µg/mL (≈ 0.454 µM). In addition, the MIC in [11] worked out at 2 µg/mL (≈ 3.63 µM); in experiment [12] it was 16 µg/mL (≈ 29.1 µM); in experiment [13], 0.12 µg/mL (≈ 0.218 µM).

Turning to `CN(C)c1cc(NS(=O)(=O)c2cccc([N+](=O)[O-])c2)c(O)c2c1CC1CC3C(N(C)C)C(O)=C(C(N)=O)C(=O)C3(O)C(O)=C1C2=O` (centres unmarked) [BB], the MIC stood at 0.06 µg/mL (≈ 0.0912 µM) in experiment [1]; 0.12 µg/mL (≈ 0.182 µM) in experiment [3]; 0.5 µg/mL (≈ 0.76 µM) in experiment [4]; 1 µg/mL (≈ 1.52 µM) in experiment [5]; 4 µg/mL (≈ 6.08 µM) in [6]; 4 µg/mL (≈ 6.08 µM) in experiment [7]. Moreover, the MIC against E. coli UBMS 88-1 (tetB) is >32 µg/mL; against E. faecalis ATCC 29212, 0.12 µg/mL (≈ 0.182 µM); in experiment [8] it was 4 µg/mL (≈ 6.08 µM); in [9], 4 µg/mL (≈ 6.08 µM); with E. coli ATCC 25922 it was 2 µg/mL (≈ 3.04 µM); in [10] it was 2 µg/mL (≈ 3.04 µM). The MIC in [11] was determined as 16 µg/mL (≈ 24.3 µM); in experiment [12] it was 8 µg/mL (≈ 12.2 µM); in [13], 0.25 µg/mL (≈ 0.38 µM).

Take `COC(=O)Nc1cc(N(C)C)c2c(c1O)C(=O)C1=C(O)[C@]3(O)C(=O)C(C(N)=O)=C(O)[C@@H](N(C)C)C3CC1C2` (stereo partly drawn) [HH, [7S-(7α,10aα)]-[9-(Aminocarbonyl)-4,7-bis(dimethylamino)-5,5a,6,6a,7,10,10a,12-octahydro-1,8,10a,11-tetrahydroxy-10,12-dioxo-2-naphthacenyl]carbamic acid methyl ester]: the MIC result in experiment [1] was “≦0.015 μg/ml”; in experiment [2] it was 0.25 µg/mL (≈ 0.471 µM); in experiment [3], 0.03 µg/mL (≈ 0.0565 µM); in experiment [4], 0.25 µg/mL (≈ 0.471 µM); in experiment [5], 0.03 µg/mL (≈ 0.0565 µM); against E. faecalis 12201, 2 µg/mL (≈ 3.77 µM). Further, the MIC in [6] turned out to be 0.25 µg/mL (≈ 0.471 µM); in experiment [7], 2 µg/mL (≈ 3.77 µM); in the experiment with E. coli UBMS 88-1 (tetB) it was 16 µg/mL (≈ 30.2 µM); in the experiment with E. coli UBMS 89-1 (tetM) it was 4 µg/mL (≈ 7.54 µM); against E. faecalis ATCC 29212, 0.25 µg/mL (≈ 0.471 µM); in [8], 0.5 µg/mL (≈ 0.942 µM). The MIC with E. coli ATCC 25922 was 2 µg/mL (≈ 3.77 µM); in experiment [10] it was 1 µg/mL (≈ 1.88 µM); in experiment [11], 4 µg/mL (≈ 7.54 µM); in experiment [12], 2 µg/mL (≈ 3.77 µM); in [13], 0.03 µg/mL (≈ 0.0565 µM).
